From patent US20220135591A1, “HETEROCYCLIC COMPOUNDS AS INHIBITORS OF MONOACYLGLYCEROL LIPASE (MAGL)” (Hoffmann-La Roche Inc., priority 2019, published 2022)

Target: T1, MAGL (recombinant wild-type) (Homo sapiens, UniProt Q99685)
T1 sequence (Q99685 1-303): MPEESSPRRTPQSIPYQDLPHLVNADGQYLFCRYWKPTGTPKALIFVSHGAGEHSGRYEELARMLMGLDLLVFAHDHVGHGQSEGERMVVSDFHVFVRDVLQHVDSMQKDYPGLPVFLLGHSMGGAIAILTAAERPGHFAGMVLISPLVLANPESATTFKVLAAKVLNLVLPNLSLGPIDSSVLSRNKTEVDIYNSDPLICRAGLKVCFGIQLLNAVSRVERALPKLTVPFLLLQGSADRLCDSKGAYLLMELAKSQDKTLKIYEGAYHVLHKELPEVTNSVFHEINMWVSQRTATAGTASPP
Experiment: 4-NPA assay: MAGL inhibitory activity by hydrolysis of 4-nitrophenylacetate, absorbance at 405 nm
Assay type: biochemical
Conditions: 4-NPA assay (values without footnote [b])
Outline: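 Final assay: 1 nM MAGL and 300 μM 4-nitrophenylacetate in 50 mM Tris, 1 mM EDTA, at RT. Compounds (25 μM–1.7 nM, 3-fold steps) were preincubated 15 min with enzyme. A405 was read 5 min after substrate addition and again after 80 min; activity was taken as the difference between reads.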

Compound | IC50
CCCCc1nc2ccc(C(=O)N3CCN(c4nc5nc(C)ccc5o4)CC3)cc2o1 [Example 263, (2-butyl-1,3-benzoxazol-6-yl)-[4-(5-methyloxazolo[4,5-b]pyridin-2-yl)piperazin-1-yl]methanone] | 181 nM
CC(C)(F)Cc1nc(-c2ccc(C(=O)N3CCN(c4nc5nc(Cl)ccc5o4)CC3)cc2)no1 [Example 264, [4-(5-chlorooxazolo[4,5-b]pyridin-2-yl)piperazin-1-yl]-[4-[5-(2-fluoro-2-methyl-propyl)-1,2,4-oxadiazol-3-yl]phenyl]methanone] | 59 nM
C=C(C)Cc1nc(-c2ccc(C(=O)N3CCN(c4nc5nc(Cl)ccc5o4)CC3)cc2)no1 [Example 265, [4-(5-chlorooxazolo[4,5-b]pyridin-2-yl)piperazin-1-yl]-[4-[5-(2-methylallyl)-1,2,4-oxadiazol-3-yl]phenyl]methanone] | 30 nM
CC(C)=Cc1nc(-c2ccc(C(=O)N3CCN(c4nc5nc(Cl)ccc5o4)CC3)cc2)no1 [Example 266, [4-(5-chlorooxazolo[4,5-b]pyridin-2-yl)piperazin-1-yl]-[4-[5-(2-methylprop-1-enyl)-1,2,4-oxadiazol-3-yl]phenyl]methanone] | 101 nM
Cc1ccc2oc(N3CCN(C(=O)N4CC5(C4)CN(S(=O)(=O)c4cccc(Cl)c4)C5)CC3)nc2n1 [Example 305, [2-(3-chlorophenyl)sulfonyl-2,6-diazaspiro[3.3]heptan-6-yl]-[4-(5-methyloxazolo[4,5-b]pyridin-2-yl)piperazin-1-yl]methanone] | 2420 nM
